Assays:
[1] = Partitioning experiment, aqueous solution / dichloromethane; assay type: physicochemical; details: 4 mM compound, pH 4; for Log P: dichloromethane/aqueous; for 2,2-dimethyl-N,N-dichlorotaurine in aqueous After Partitioning % 2,2-dimethyl-N,N-dichlorotaurine: equal volume dichloromethane overnight
Description: Example 6 provides evidence of ion pairing taking place between a N-halogenated amino acid and a phase transfer agent, and the resulting changes in partitioning behavior. The partitioning experiment can be used to evaluate a compound's apparent lipophilicity and the potential improvement in antimicrobial activity when used on tissue.
Aqueous solutions were prepared containing 0.1% (4 mM) sodium 2,2-dimethyl-N,N-dichlorotaurine, tetrabutylammonium hydroxide (TBAH) at 0 mM, 1 mM, 4 mM, or 10 mM, 5 mM sodium acetate, sodium chloride to adjust osmolality to isotonic, and sodium hydroxide and/or hydrochloric acid to adjust pH to 4.
These aqueous solutions were assayed for 2,2-dimethyl-N,N-dichlorotaurine by reverse phase high pressure liquid chromatography. Each solution was then combined with an equal volume of dichloromethane, mixed on a rocker overnight, and the aqueous phase reassayed. The percent loss of 2,2-dimethyl-N,N-dichlorotaurine from the aqueous phase and theoretical percent of 2,2-dimethyl-N,N-dichlorotaurine partitioning to the dichloromethane were calculated and plotted versus the concentration of TBAH.
The theoretical percentage of 2,2-dimethyl-N,N-dichlorotaurine in dichloromethane phase is calculated as 100 percent minus the percent remaining in aqueous phase. FIG. 2 graphically illustrates the results of the above-described partitioning experiment. When 4 mM 2,2-dimethyl-N,N-dichlorotaurine in aqueous solution is combined with varying concentrations of TBAH, the quantity of 2,2-dimethyl-N,N-dichlorotaurine found in the aqueous solution decreases. Without added TBAH, almost all the 2,2-dimethyl-N,N-dichlorotaurine is found in the aqueous fraction. However, with 10 mM TBAH, most of the 2,2-dimethyl-N,N-dichlorotaurine has left the aqueous fraction and partitioned to the dichloromethane. This experiment is evidence of ion pair formation with TBAH phase transfer agent, which increases the apparent lipophilicity of the 2,2-dimethyl-N,N-dichlorotaurine.

C. albicans = experiment: Antimicrobial activity by standard microbiological analysis (viability after exposure to test agent); assay type: cell-based; details: when 10 mM TBAH phase transfer agent is added
Description: The antimicrobial activity of certain formulations described herein was evaluated by a standard microbiological analysis. For the evaluation, bacterial and fungal isolates were grown overnight on appropriate agar media as source of fresh cells. A suspension of these fresh cells was prepared in saline at approximately 1×10^8 cfu/mL. These suspensions were added directly to the test agents (various solutions of sodium 2,2-dimethyl-N,N-dichlorotaurine and control solutions). The initial concentration of cells in the test agent solutions was approximately 1×10^6 cfu/mL. The exposure of microorganisms to the test agent was conducted at room temperature for up to 60 minutes. At selected times, an aliquot was withdrawn and diluted into phosphate buffered saline at 4° C. Viability was determined following serial dilution and filtration onto Milliflex cassettes.

## CC(C)(CS(=O)(=O)O)N(Cl)Cl [2,2-dimethyl-N,N-dichlorotaurine]
[1]; TBAH 0 mM
  2,2-dimethyl-N,N-dichlorotaurine in aqueous After Partitioning % in Aqueous: 96.1%
  2,2-dimethyl-N,N-dichlorotaurine in aqueous Before Partitioning % 2,2-dimethyl-N,N-dichlorotaurine: 0.1007%
  Calculated 2,2-dimethyl-N,N-dichlorotaurine % in CH2Cl2 After Partitioning Theory % in Dichloromethane: 3.9%
  Log P: −1.39
  2,2-dimethyl-N,N-dichlorotaurine in aqueous After Partitioning % 2,2-dimethyl-N,N-dichlorotaurine: 0.09675%
[1]; TBAH 1 mM
  2,2-dimethyl-N,N-dichlorotaurine in aqueous After Partitioning % in Aqueous: 76.1%
  2,2-dimethyl-N,N-dichlorotaurine in aqueous Before Partitioning % 2,2-dimethyl-N,N-dichlorotaurine: 0.1008%
  Calculated 2,2-dimethyl-N,N-dichlorotaurine % in CH2Cl2 After Partitioning Theory % in Dichloromethane: 23.9%
  Log P: −0.50
  2,2-dimethyl-N,N-dichlorotaurine in aqueous After Partitioning % 2,2-dimethyl-N,N-dichlorotaurine: 0.07672%
[1]; TBAH 4 mM
  2,2-dimethyl-N,N-dichlorotaurine in aqueous After Partitioning % in Aqueous: 35.4%
  2,2-dimethyl-N,N-dichlorotaurine in aqueous Before Partitioning % 2,2-dimethyl-N,N-dichlorotaurine: 0.1008%
  Calculated 2,2-dimethyl-N,N-dichlorotaurine % in CH2Cl2 After Partitioning Theory % in Dichloromethane: 64.6%
  Log P: 0.26
  2,2-dimethyl-N,N-dichlorotaurine in aqueous After Partitioning % 2,2-dimethyl-N,N-dichlorotaurine: 0.03573%
[1]; TBAH 10 mM
  2,2-dimethyl-N,N-dichlorotaurine in aqueous After Partitioning % in Aqueous: 11.9%
  2,2-dimethyl-N,N-dichlorotaurine in aqueous Before Partitioning % 2,2-dimethyl-N,N-dichlorotaurine: 0.1009%
  Calculated 2,2-dimethyl-N,N-dichlorotaurine % in CH2Cl2 After Partitioning Theory % in Dichloromethane: 88.1%
  Log P: 0.87
  2,2-dimethyl-N,N-dichlorotaurine in aqueous After Partitioning % 2,2-dimethyl-N,N-dichlorotaurine: 0.01198%
C. albicans
  antimicrobial activity (FIG. 1): dramatically increased

— patent US20080275123A1, “N-HALOGENATED AMINO ACID FORMULATIONS” (ALCON RESEARCH, LTD., priority 2007, published 2008)
